Measurements from ChEMBL document CHEMBL1201862, “PubChem BioAssay data set” (2004).
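The compound was tested at five concentrations on cells cultured in 96-well plates, with a 48-hour exposure period. GI50 marks 50% less growth.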 Calls of active or inactive are those of the source. Rule as the data show it: active = GI50 up to about 1.1 µM and inactive = higher.

Key:
Test in all cases: inhibition of tumour cell growth, NCI panel, 48 h
[1] = test system: 786-0
[2] = test system: CCRF-CEM
[3] = test system: HCT-15
[4] = test system: SF-539
[5] = test system: SR
[6] = test system: SK-MEL-2
[7] = test system: A549
[8] = test system: SK-MEL-5
[9] = test system: U-251
[10] = test system: HCT-116
[11] = test system: HOP-92
[12] = test system: HT-29
[13] = test system: TK-10
[14] = test system: SK-OV-3
[15] = test system: HL-60
[16] = test system: NCI-H522
[17] = test system: OVCAR-3
[18] = test system: Malme-3M
[19] = test system: SK-MEL-28
[20] = test system: HOP-62
[21] = test system: A498
[22] = test system: COLO 205
[23] = test system: SNB-75
[24] = test system: KM12
[25] = test system: K562
[26] = test system: SNB-78
[27] = test system: NCI-H460
[28] = test system: SF-268
[29] = test system: CAKI-1
[30] = test system: HOP-18
[31] = test system: LOX IMVI
[32] = test system: OVCAR-8
[33] = test system: LXFL 529
[34] = test system: DLD-1
[35] = test system: IGROV-1
[36] = test system: MOLT-4
[37] = test system: NCI-H23
[38] = test system: M14
[39] = test system: M19-MEL
[40] = test system: OVCAR-5
[41] = test system: UO-31
[42] = test system: OVCAR-4
[43] = test system: KM-20L2
[44] = test system: UACC-257
[45] = test system: DMS-273
[46] = test system: SW-620
[47] = test system: HCC 2998
[48] = test system: ACHN
[49] = test system: EKVX
[50] = test system: SNB-19
[51] = test system: DMS-114
[52] = test system: SN12C
[53] = test system: UACC-62
[54] = test system: SF-295
[55] = test system: NCI-H226
[56] = test system: RPMI-8226
[57] = test system: RXF 393

With CCC1(N=[N+]=[N-])C(=O)c2ccccc2N(C)C1=O (stereo not drawn) the GI50 [1] was > 100 µM (inactive), the GI50 [2] was > 100 µM (inactive) and the GI50 [3] was > 100 µM. The GI50 [4] was > 100 µM (inactive), the GI50 [5] was > 100 µM (inactive) and the GI50 [6] was > 100 µM (inactive). The GI50 [7] was > 100 µM (inactive), the GI50 [8] was > 100 µM (inactive) and the GI50 [9] was > 100 µM (inactive). The GI50 [10] was > 100 µM (inactive), the GI50 [11] was > 100 µM (inactive) and the GI50 [12] was > 100 µM (inactive). The GI50 [13] was > 100 µM (inactive), the GI50 [14] was > 100 µM (inactive) and the GI50 [15] was > 100 µM (inactive). The GI50 [16] was > 100 µM (inactive), the GI50 [17] was > 100 µM (inactive) and the GI50 [18] was > 100 µM (inactive). For the same molecule, the GI50 [19] was > 100 µM (inactive), the GI50 [20] was > 100 µM (inactive) and the GI50 [21] was > 100 µM (inactive). For the same molecule, the GI50 [22] was > 100 µM (inactive), the GI50 [23] was > 100 µM (inactive) and the GI50 [24] was > 100 µM (inactive). The GI50 [25] was > 100 µM (inactive), the GI50 [26] was > 100 µM (inactive) and the GI50 [27] was > 100 µM (inactive). For the same molecule, the GI50 [28] was > 100 µM (inactive), the GI50 [29] was > 100 µM (inactive) and the GI50 [30] was 82.2 µM (inactive). The GI50 [31] was > 100 µM (inactive), the GI50 [32] was > 100 µM (inactive) and the GI50 [33] was > 100 µM (inactive). For the same molecule, the GI50 [34] was > 100 µM (inactive), the GI50 [35] was > 100 µM (inactive) and the GI50 [36] was > 100 µM (inactive). For the same molecule, the GI50 [37] was > 100 µM (inactive), the GI50 [38] was > 100 µM (inactive) and the GI50 [39] was > 100 µM (inactive). For the same molecule, the GI50 [40] was > 100 µM (inactive), the GI50 [41] was > 100 µM (inactive) and the GI50 [42] was > 100 µM (inactive). For the same molecule, the GI50 [43] was > 100 µM (inactive), the GI50 [44] was > 100 µM (inactive) and the GI50 [45] was > 100 µM (inactive). The GI50 [46] was > 100 µM (inactive), the GI50 [47] was > 100 µM (inactive) and the GI50 [48] was > 100 µM (inactive). The GI50 [49] was > 100 µM (inactive), the GI50 [50] was > 100 µM (inactive) and the GI50 [51] was > 100 µM (inactive). The GI50 [52] was > 100 µM (inactive), the GI50 [53] was > 100 µM (inactive) and the GI50 [54] was > 100 µM (inactive).

For Cn1ccnc1CCc1ccc(Cl)c(Cl)c1, the GI50 [1] was > 100 µM (inactive), the GI50 [2] was > 100 µM (inactive) and the GI50 [3] was > 100 µM. For the same molecule, the GI50 [4] was > 100 µM (inactive), the GI50 [5] was > 100 µM (inactive) and the GI50 [6] was > 100 µM (inactive). For the same molecule, the GI50 [7] was > 100 µM (inactive), the GI50 [8] was 37.5 µM (inactive) and the GI50 [9] was > 100 µM (inactive). The GI50 [10] was > 100 µM (inactive), the GI50 [11] was 43.3 µM (inactive) and the GI50 [12] was 86.7 µM (inactive). The GI50 [13] was > 100 µM (inactive), the GI50 [14] was > 100 µM (inactive) and the GI50 [15] was 69 µM (inactive). For the same molecule, the GI50 [16] was > 100 µM (inactive), the GI50 [17] was 74.1 µM (inactive) and the GI50 [18] was > 100 µM (inactive). The GI50 [19] was > 100 µM (inactive), the GI50 [20] was > 100 µM (inactive) and the GI50 [21] was 73.5 µM (inactive). The GI50 [22] was > 100 µM (inactive), the GI50 [23] was 37.3 µM (inactive) and the GI50 [24] was > 100 µM (inactive). The GI50 [25] was 54.7 µM (inactive), the GI50 [26] was > 100 µM (inactive) and the GI50 [27] was > 100 µM (inactive). For the same molecule, the GI50 [55] was > 100 µM (inactive), the GI50 [28] was > 100 µM (inactive) and the GI50 [29] was > 100 µM (inactive). For the same molecule, the GI50 [30] was 47.1 µM (inactive), the GI50 [31] was > 100 µM (inactive) and the GI50 [32] was > 100 µM (inactive). For the same molecule, the GI50 [33] was > 100 µM (inactive), the GI50 [34] was > 100 µM (inactive) and the GI50 [35] was > 100 µM (inactive). The GI50 [36] was > 100 µM (inactive), the GI50 [56] was > 100 µM (inactive) and the GI50 [37] was > 100 µM (inactive). The GI50 [38] was > 100 µM (inactive), the GI50 [39] was > 100 µM (inactive) and the GI50 [40] was > 100 µM (inactive). For the same molecule, the GI50 [41] was 50.5 µM (inactive), the GI50 [42] was > 100 µM (inactive) and the GI50 [43] was > 100 µM (inactive). For the same molecule, the GI50 [44] was > 100 µM (inactive), the GI50 [45] was > 100 µM (inactive) and the GI50 [46] was > 100 µM (inactive). The GI50 [48] was > 100 µM (inactive), the GI50 [57] was > 100 µM (inactive) and the GI50 [51] was 67.5 µM (inactive). For the same molecule, the GI50 [52] was > 100 µM (inactive), the GI50 [53] was > 100 µM (inactive) and the GI50 [54] was > 100 µM (inactive).
